Laboratory results taken from US20080255076A1, “Steroid-Derived Pharmaceutical Compositions” (JadoLabs GmbH, priority 2004, published 2008).

Legend:
Raft liposomes = test: Disrafter-Liposome Raftophile Assay (D-LRA); conditions: for disrafting activity in the DLRA (in words): significance above 25% or below −25%; for % disrafting in the DLRA with perylene: indicator perylene 2 μM; for % disrafting in the DLRA with perylene / % disrafting in the DLRA with GS-96: test compound 100 μM final, negative = raft augmentation; for % disrafting in the DLRA: indicator not stated; for % disrafting in the DLRA with GS-96: indicator GS-96 0.2 μM
HIV-1 strain NL4-3 = test: HIV assay; type: cell-based; conditions: compared to solvent; for inhibition of HIV infection: 30 μM, HeLa TZM cells; for inhibition at 30 µM: Human immunodeficiency virus 1, NL43, HeLa TZM cells, read-out: inhibition of HIV infection
Wild type SV40 viruses = test: SV40 infection assay; type: cell-based, Simian Virus 40; conditions: HeLa cells
[1] = test system: vesicular stomatitis virus (VSV); type: cell-based
Influenza virus = test: Virus budding assay (influenza assay); type: cell-based; conditions: MDCK cells; test compound 1 h; below 100% = inhibition
PR8 virus = test: microbe, parasite or virus in culture; type: cell-based, influenza virus
[2] = test system: Rat basophilic leukemia (RBL-2H3) cells; test: Degranulation assay (β-hexosaminidase release); type: cell-based; conditions: 100 μM, compared to solvent vehicle
Description: The assay measures release of β-hexosaminidase as a marker of release of various preformed pharmacological agents in response to clustering of the high affinity IgE receptor (FcεRI) by means of multivalent antigen-IgE complexes. Rat basophilic leukemia (RBL-2H3) cells, a commonly used model of mast cell degranulation, are sensitized with anti-DNP specific IgE and challenged with multivalent DNP-BSA. The release of β-hexosaminidase into the supernatant is measured by enzymatic conversion of the fluorogenic substrate 4-methylumbelliferyl-N-acetyl-[…] to N-acetyl-β-D-glucosamine and highly fluorescent methylumbelliferone and quantified by fluorescence detection in a Tecan Safire™ plate reader. • 2. Materials […]
Two to 24 hours before incubation with test compounds the medium was removed and cells were sensitized with 0.4 μg/ml anti-DNP IgE in fresh medium. […] Hexosaminidase activity in supernatants and lysates was measured by incubating 25 μl aliquots with 100 μl MUG substrate solution in a 96-well plate at 37° C. for 30 min. […] Fluorescence was measured in a Tecan Safire™ plate reader at 365 nm excitation and 440 nm emission settings.
Each compound is tested in duplicates in at least three independent experiments. β-hexosaminidase release is calculated after subtraction of unspecific release (release without addition of antigen) using the formula: […]

[3] = Betapolyomavirus macacae, M-HeLa, 30 μM, compared to solvent
[4] = unidentified influenza virus, PR8, MDCK, read-out: inhibition of PR8 virus replication

Compound	disrafting activity in the DLRA (in words) (Raft liposomes)	% disrafting in the DLRA with perylene (Raft liposomes)	inhibitory effect on viral infection in the VSV counterscreen (in words) [1]	% disrafting in the DLRA with GS-96 (Raft liposomes)	other results
CCCCCCCCCCCC=C1CC[C@H]2[C@@H]3CCC4CC(=O)CC[C@]4(C)[C@H]3CC[C@]12C (relative stereo) [Compound 10ak, cis-Δ^17(20)-Dodecylidene-3-androstanone]	high negative or positive values				inhibition of HIV infection (HIV-1 strain NL4-3): 23%
C/C=C1/CC[C@H]2[C@@H]3CCc4cc(OC(C)=O)ccc4[C@H]3CC[C@]12C (relative stereo) [Compound 10db, cis-Δ^17(20)-19-Norpregna-1,3,5(10),17(20)-tetraen-3-yl acetate]	high negative or positive values	−536%	no inhibitory effect on viral infection at all		inhibition of SV40 infection (Wild type SV40 viruses; 30 μM, compared to solvent): 52.2%; inhibition of HIV infection (HIV-1 strain NL4-3): 27%
C[C@]12CC[C@@H](O)C[C@@H]1CC[C@@H]1[C@@H]2CC[C@]2(C)C(=O)CC[C@@H]12 [Androsterone, reference compound]	do not show significant disrafting activity				% disrafting in the DLRA (Raft liposomes): 0%
CO[C@@H]1CC[C@@]2(C)[C@@H](CC[C@H]3[C@@H]4CCC[C@@]4(C)CC[C@@H]32)C1 [Compound 10ac, 3alpha-Methoxy-5alpha-androstane]	high negative or positive values	about +68%	no inhibitory effect on viral infection at all		inhibition at 30 µM (Wild type SV40 viruses; [3]): 12.9%
C/C=C1/CCC2C3CCC4C[C@@H](O)CC[C@]4(C)C3CC[C@]12C (stereo partly drawn) [Compound 10ad, cis-Δ^17(20)-5alpha-Pregnen-3beta-ol]	high negative or positive values	about −105%	no inhibitory effect on viral infection at all	about −66%	virus budding, percentage with respect to an untreated control (Influenza virus): 61%; inhibition at 20 µM (PR8 virus; [4]): 59.6%; inhibition at 30 µM (Wild type SV40 viruses; [3]): 15.2%
C/C=C1/CCC2C3CCC4CC(=O)CC[C@]4(C)C3CC[C@]12C (stereo partly drawn) [Compound 10ae, cis-Δ^17(20)-5alpha-Pregnen-3-one]	high negative or positive values	about −43%		~−20%	virus budding, percentage with respect to an untreated control (Influenza virus): about 140%; inhibition at 50 µM (PR8 virus; [4]): 32.9%
CC[C@H]1CC[C@H]2[C@@H]3CC[C@H]4C[C@@H](O)CC[C@]4(C)[C@H]3CC[C@]12C [Compound 10af, 5alpha-Pregnan-3beta-ol]	high negative or positive values	−217%	no inhibitory effect on viral infection at all	−74.7%	inhibition at 50 µM (PR8 virus; [4]): 27.9%; inhibition at 30 µM (Wild type SV40 viruses; [3]): 18.9%
CC[C@H]1CCC2C3CCC4C[C@H](N=[N+]=[N-])CC[C@]4(C)C3CC[C@@]21C (stereo partly drawn) [Compound 10ag, 5alpha-Pregnan-3alpha-azide]	high negative or positive values	−71.8%		−187%	
C/C=C1/CCC2C3CCc4cc(O)ccc4C3CC[C@]12C (stereo partly drawn) [Compound 10da, cis-Δ^17(20)-19-Norpregna-1,3,5(10),17(20)-tetraen-3-ol]	high negative or positive values	−729%	no inhibitory effect on viral infection at all		inhibition at 15 µM (Wild type SV40 viruses; Betapolyomavirus macacae, M-HeLa, 15 μM): 29.6%; inhibition at 30 µM (HIV-1 strain NL4-3): 18%
C/C=C1/CCC2C3CCc4cc(OC)ccc4C3CC[C@]12C (stereo partly drawn) [Compound 10dc, cis-Δ^17(20)-19-Norpregna-1,3,5(10),17(20)-tetraen-3-yl methyl ether]	high negative or positive values	−139%			inhibition at 30 µM (HIV-1 strain NL4-3): 38%
CC(C)CCC[C@@H](C)[C@H]1CC[C@H]2[C@@H]3CC=C4C[C@@H](O)CC[C@]4(C)[C@H]3CC[C@]12C [cholesterol, reference compound]	do not show significant disrafting activity				% disrafting in the DLRA (Raft liposomes): 0%
C[C@]12CC[C@H](O)C[C@@H]1CC[C@@H]1[C@@H]2CC[C@]2(C)C(=O)CC[C@@H]12 [epiandrosterone, reference compound]	do not show significant disrafting activity				% disrafting in the DLRA (Raft liposomes): 0%
cis-Δ^17(20)-Dodecylidene-3alpha-aminoandrostan [Compound 10al]	high negative or positive values	−216%			inhibition of PR8 virus replication (PR8 virus; 12.5 μM, MDCK cells): 54%; inhibition of release of β-hexosaminidase [2]: 61%
